Reference: PMC9814635 (Communications Chemistry, 2022)
pIC50: −log10 of the molar value.

What was measured:
FGFR1 = details: printed as potency 'toward FGFRs' in the FGFR1 comparison; cited from earlier work
parental Ba/F3 cells = test: cells; details: Mus musculus, BaF3, 72 h, read-out: IC50 proliferation, parental Ba/F3 cells
Description: (§1) Cell proliferation and viability were evaluated in parental Ba/F3 cells and TEL-FGFR1-4/FGFR mutation-translocated Ba/F3 cell lines.

[1] = tested on: FGFR4-translocated Ba/F3 cells; test: cells; details: Mus musculus, BaF3, 72 h, read-out: IC50 proliferation, FGFR4 Ba/F3 cells
Description: as §1

[2] = Phase II FIGHT-202, patients; cited from earlier work

| Structure (SMILES) | pIC50 (FGFR1) | pIC50 (parental Ba/F3 cells) | pIC50 [1] | complete responses [2] [%] | disease control rate [2] [%] | objective response rate [2] [%] |
| --- | --- | --- | --- | --- | --- | --- |
| CCN1C(=O)N(c2c(F)c(OC)cc(OC)c2F)Cc2cnc3[nH]c(CN4CCOCC4)cc3c21 [pemigatinib] |  | < 5.30 | 7.92 | 2.8 | 82.0 | 35.5 |
